Measured values published in paper PMC9916685, “Discovery of Small Molecule COX-1 and Akt Inhibitors as Anti-NSCLC Agents Endowed with Anti-Inflammatory Action” (International Journal of Molecular Sciences, 2023).

What was measured:
[1] = test system: COX-1; conditions: cited from earlier work
[2] = test system: COX-2; conditions: cited from earlier work
[3] = test system: nitric oxide (NO); assay: LPS-induced sepsis model, serum NO levels; format: in vivo, Sprague Dawley rats; conditions: rat serum, 24 h after LPS; 3b, 4a 10 mg/kg/day, indomethacin 5 mg/kg by gastric intubation six days; n = 8
Description: (§1) Male albino Sprague Dawley rats (~250–300 g) were procured from the Medical and Surgical Experimental Animals Application and Research Center of Eskisehir Osmangazi University (ESOGU). In the animal house, the rats were housed in stainless steel cages under standard atmospheric conditions at 22 ± 1 °C and exposed to 12 h/12 h light/dark cycle. Food and water were given ad libitum. All experiments and protocols reported in this work were approved by ESOGU Animal Experiments Local Ethics Committee (10 December 2018/700).
(§2) Compounds 3b, 4a, and indomethacin (Sigma-Aldrich, St. Louis, MO, USA) were dissolved in 5% dimethyl sulfoxide (DMSO) and then diluted. The final DMSO concentration in the solution was 0.5% (v/v). The agents were administered by gastric intubation.
(§3) Rats were randomly divided into five groups (n = 8) as control group, LPS group, test groups (3b and 4a), and reference group. 0.5% DMSO was used as control solution for LPS group. Indomethacin (5 mg/kg) was used as a reference agent. Control group (Group I) was fed with basal rat chow throughout the experimental period. LPS group (Group II) was fed with basal rat chow for six days (only 0.5% DMSO was administered by gastric intubation) and LPS was injected intraperitoneally in 0.9% sodium chloride solution only once on the 7th day. Groups III, IV, and V were fed with basal rat chow and compound 3b (10 mg/kg/day), compound 4a (10 mg/kg/day), and indomethacin were administered, respectively, by gastric intubation for six days. Then, LPS was injected intraperitoneally in 0.9% sodium chloride solution only once on the 7th day for three groups as well. After 24 h of LPS injection, all rats were sacrificed by ketamine (80 mg/kg) ve xylazine (10 mg/kg) anesthesia via intraperitoneal route. Blood samples were collected via cardiac puncture in tubes containing gel for obtaining serum.
Nitrate and nitrite, which represent the best index of the entire NO production, are the stable end products of NO in vivo. Nitrate in serum was assayed by a slight modification of the Cd-reduction method as reported by Cortas and Wakid.

[4] = LPS-induced sepsis model, serum ALT and AST levels; format: in vivo, Sprague Dawley rats; conditions: rat serum, 24 h after LPS; 3b, 4a 10 mg/kg/day, indomethacin 5 mg/kg by gastric intubation six days; mean ± SD, n = 8
Description: as §1, §2, §3
Serum ALT and AST levels were determined using enzyme-based Roche Diagnostics kit in Roche Modular Systems analyzer by photometric assay based on the manufacturer’s instructions. The other serum samples were stored at −80 °C (Thermo Electron, Waltham, MA, USA) for subsequent analyses of MPO and NO levels.

[5] = test system: myeloperoxidase (MPO); assay: LPS-induced sepsis model, serum MPO levels; format: in vivo, Sprague Dawley rats; conditions: for MPO (U/L): rat serum, 24 h after LPS 1 mg/kg i.p., 3b, 4a 10 mg/kg/day, indomethacin 5 mg/kg by gastric intubation for six days, mean ± SD, n = 8; for change of MPO activity compared to the LPS group: in words, LPS-induced sepsis, rats
Description: as §1, §2, §3
Suzuki’s assay was performed with slight modifications. The rate of MPO-catalyzed oxidation of 3,3′,5,5′-tetramethylbenzidine (TMB) was followed by recording the absorbance increase at 655 nm for 5 min. Taking into account the linear phase of the reaction, the absorbance change was measured per minute. The enzyme activity was expressed as the amount of the enzyme producing one absorbance change per minute under assay conditions.

[6] = test system: A549 human lung adenocarcinoma cells; assay: MTT cytotoxicity assay, A549 cells; format: cell-based; conditions: mean ± SD
Description: (§4) A549 human lung adenocarcinoma and L929 mouse fibroblast cell lines were obtained from American Type Culture Collection (ATCC) (Manassas, VA, USA). Both cell lines were cultured, and drug treatments were carried out as previously reported.
(§5) MTT assay was conducted as previously explained in the literature with small modifications. Cisplatin was used as a positive control. The assay was performed in triplicate. IC50 data (µM) were expressed as mean ± SD.

[7] = target: T1, COX-2 (Ovis aries, UniProt P79208); assay: COX (ovine) colorimetric inhibitor screening assay, COX-2; format: biochemical; conditions: ovine COX-2, colorimetric, triplicate, mean ± SD
T1 construct: purchased Cayman
T1 sequence (P79208 17-603): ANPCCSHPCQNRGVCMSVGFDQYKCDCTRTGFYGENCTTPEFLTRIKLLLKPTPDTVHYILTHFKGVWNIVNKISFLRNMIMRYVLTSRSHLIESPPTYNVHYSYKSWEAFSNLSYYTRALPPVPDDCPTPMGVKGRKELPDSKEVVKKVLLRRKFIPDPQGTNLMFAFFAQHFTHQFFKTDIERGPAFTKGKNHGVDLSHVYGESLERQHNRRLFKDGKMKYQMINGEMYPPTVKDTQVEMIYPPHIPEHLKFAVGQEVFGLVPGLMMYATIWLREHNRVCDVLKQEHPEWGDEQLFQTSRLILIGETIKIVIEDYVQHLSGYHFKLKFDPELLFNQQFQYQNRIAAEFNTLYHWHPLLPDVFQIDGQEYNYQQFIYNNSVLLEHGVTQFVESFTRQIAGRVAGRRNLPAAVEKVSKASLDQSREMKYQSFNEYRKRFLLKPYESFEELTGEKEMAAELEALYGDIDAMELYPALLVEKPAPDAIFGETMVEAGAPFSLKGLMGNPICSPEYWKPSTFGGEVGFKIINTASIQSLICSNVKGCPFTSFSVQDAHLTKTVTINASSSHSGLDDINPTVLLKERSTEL
Description: (§6) COX (ovine) Colorimetric Inhibitor Screening Assay (Cayman, Ann Arbor, MI, USA) was conducted to detect the peroxidase component of COX-1 and COX-2 according to the manufacturer’s instructions. The assay was performed in triplicate. Half maximal inhibitory concentration (IC50) data (µM) were expressed as mean ± SD.

[8] = test system: Akt; assay: Akt Colorimetric In-Cell ELISA in A549 cells; format: cell-based, human; conditions: 24 h, mean ± SD, read-out: Akt inhibition IC50 in A549 cells
Description: The assay was performed in triplicate. IC50 data (µM) were expressed as mean ± SD.

[9] = test system: L929 mouse fibroblast (normal) cells; assay: MTT cytotoxicity assay, L929 normal cells; format: cell-based; conditions: for IC50: MTT, L929 mouse fibroblast cells, mean ± SD; for cytotoxicity against L929 cells at effective concentrations: in words, at concentrations effective for COX-1 inhibition
Description: as §4, §5

[10] = test system: A549 cells; assay: Annexin V-FITC/PI flow cytometry-based apoptosis detection; conditions: A549, 24 h; for percentage of A549 cells undergoing apoptosis (early and late): sum of early and late
[11] = target: T2, COX-1 (Ovis aries, UniProt P05979); assay: COX (ovine) colorimetric inhibitor screening assay, COX-1; format: biochemical; conditions: for IC50: ovine COX-1, colorimetric, triplicate, mean ± SD; for SI (IC50 for COX-1/IC50 for COX-2): selectivity index
T2 construct: purchased Cayman
T2 sequence (P05979 25-600): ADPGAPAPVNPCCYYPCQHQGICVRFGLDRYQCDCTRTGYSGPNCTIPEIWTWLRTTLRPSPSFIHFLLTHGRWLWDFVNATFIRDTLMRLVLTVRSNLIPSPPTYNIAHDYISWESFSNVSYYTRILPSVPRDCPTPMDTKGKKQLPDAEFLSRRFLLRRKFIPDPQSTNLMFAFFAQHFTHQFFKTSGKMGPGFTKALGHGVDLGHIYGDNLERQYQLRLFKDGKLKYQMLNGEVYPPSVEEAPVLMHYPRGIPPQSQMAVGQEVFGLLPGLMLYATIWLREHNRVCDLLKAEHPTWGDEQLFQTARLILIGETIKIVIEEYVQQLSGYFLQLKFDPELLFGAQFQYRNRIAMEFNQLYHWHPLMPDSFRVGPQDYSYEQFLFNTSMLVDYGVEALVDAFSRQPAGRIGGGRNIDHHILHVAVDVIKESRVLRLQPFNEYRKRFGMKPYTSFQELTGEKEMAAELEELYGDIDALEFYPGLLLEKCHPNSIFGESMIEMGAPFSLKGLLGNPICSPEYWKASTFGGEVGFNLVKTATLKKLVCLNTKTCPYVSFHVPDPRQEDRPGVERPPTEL
Description: as §6

[12] = test system: Akt; parameters: method as in doi:10.2174/1570180817999200618163507; conditions: 5RP7 H-ras oncogene transformed rat embryonic fibroblast cell line; cited from earlier work

N#Cc1ccc(C(=O)C=Cc2c[nH]c3ccc(Br)cc23)cc1 [3-(5-bromo-1H-indol-3-yl)-1-(4-cyanophenyl)prop-2-en-1-one]
COX-1 IC50 [1]: 8.10 µg/mL
COX-2 IC50 [2]: 9.50 µg/mL

COc1ccc2[nH]cc(C=CC(=O)c3ccc(S(C)(=O)=O)cc3)c2c1 [3-(5-methoxy-1H-indol-3-yl)-1-(4-(methylsulfonyl)phenyl)prop-2-en-1-one]
COX-1 IC50 [1]: 8.60 µg/mL

COc1ccc2c(c1)c(CC(=O)O)c(C)n2C(=O)c1ccc(Cl)cc1 [Indomethacin, reference compound]
NO level, 25% Percentile [3]: 0.667 µmol/L
NO level, 75% Percentile [3]: 3.123 µmol/L
NO level, Median [3]: 1.281 µmol/L
ALT (U/L) [4]: 44.00 ± 14.64 U/L
AST (U/L) [4]: 123.50 ± 32.14 U/L
MPO (U/L) [5]: 1.06 ± 0.73 U/L

O=C(Cc1c[nH]c2ccccc12)NNC(=S)Nc1ccc(Br)cc1 [Compound 4a, 4-(4-Bromophenyl)-1-[2-(1H-indol-3-yl)acetyl]thiosemicarbazide]
IC50 ([6]; Homo sapiens): 179 ± 77.6 µM
NO level, 25% Percentile [3]: 1.369 µmol/L
NO level, 75% Percentile [3]: 4.0 µmol/L
NO level, Median [3]: 2.509 µmol/L
ALT (U/L) [4]: 48.29 ± 26.88 U/L
AST (U/L) [4]: 132.30 ± 37.06 U/L
melting point: 187 to 189 °C
IC50 [7]: 76.5 ± 6.36 µM
IC50 [8]: 45.3 ± 6.51 µM
change of MPO activity compared to the LPS group [5]: significantly decreased
MPO (U/L) [5]: 0.84 ± 0.26 U/L
IC50 [9]: 84 ± 19.7 µM
cytotoxicity against L929 cells at effective concentrations [9]: did not show cytotoxicity
Early Apoptosis (%) ([10]; compound at IC50/2): 7.07%
Late Apoptosis (%) ([10]; compound at IC50/2): 6.62%
Necrosis (%) ([10]; compound at IC50/2): 0.60%
Early Apoptosis (%) ([10]; compound at IC50/4): 7.34%
Late Apoptosis (%) ([10]; compound at IC50/4): 5.19%
Necrosis (%) ([10]; compound at IC50/4): 0.37%
IC50 [11]: 10 ± 0.13 µM
SI (IC50 for COX-1/IC50 for COX-2) [11]: 0.13

O=C(Cc1c[nH]c2ccccc12)NN=Cc1ccc(N2CCOCC2)cc1 [Compound 3b, 2-(1H-Indol-3-yl)-N′-(4-morpholinobenzylidene)acetohydrazide]
IC50 ([6]; Homo sapiens): 89.7 ± 10.8 µM
NO level, 25% Percentile [3]: 0.316 µmol/L
NO level, 75% Percentile [3]: 2.772 µmol/L
NO level, Median [3]: 0.667 µmol/L
ALT (U/L) [4]: 50.25 ± 21.86 U/L
AST (U/L) [4]: 114.90 ± 22.04 U/L
melting point: 306 to 307 °C
IC50 [7]: 71 ± 1.41 µM
IC50 [8]: 32.5 ± 4.95 µM
change of MPO activity compared to the LPS group [5]: slightly decreased
MPO (U/L) [5]: 1.50 ± 0.81 U/L
IC50 [9]: 177 ± 5.77 µM
cytotoxicity against L929 cells at effective concentrations [9]: did not show cytotoxicity
Early Apoptosis (%) ([10]; compound at IC50): 6.84%
Late Apoptosis (%) ([10]; compound at IC50): 6.01%
Necrosis (%) ([10]; compound at IC50): 0.48%
Early Apoptosis (%) ([10]; compound at IC50/2): 5.89%
Late Apoptosis (%) ([10]; compound at IC50/2): 5.78%
Necrosis (%) ([10]; compound at IC50/2): 0.36%
percentage of A549 cells undergoing apoptosis (early and late) ([10]; compound at IC50/2): 11.67%
percentage of A549 cells undergoing apoptosis (early and late) ([10]; compound at IC50): 12.85%
IC50 [11]: 8.9 ± 0.14 µM
SI (IC50 for COX-1/IC50 for COX-2) [11]: 0.13

O=[N+]([O-])c1ccc(Oc2ccc(C=NNC(=S)Nc3ccc(S(=O)(=O)N4CCCCC4)cc3)cc2)cc1 [4-[4-(piperidin-1-ylsulfonyl)phenyl]-1-[4-(4-nitrophenoxy)benzylidene]thiosemicarbazide]
IC50 [1]: 13.4 µM
IC50 [2]: 12.6 µM

N.N.[Cl][Pt][Cl] [Cisplatin, reference compound]
IC50 [6]: 22.7 ± 4.04 µM
IC50 [8]: 9.3 ± 2.55 µM
Early Apoptosis (%) ([10]; compound at IC50): 2.43%
Late Apoptosis (%) ([10]; compound at IC50): 2.03%
Necrosis (%) ([10]; compound at IC50): 2.34%
Early Apoptosis (%) ([10]; compound at IC50/2): 3.69%
Late Apoptosis (%) ([10]; compound at IC50/2): 2.88%
Necrosis (%) ([10]; compound at IC50/2): 0.72%
percentage of A549 cells undergoing apoptosis (early and late) ([10]; compound at IC50/2): 6.57%
percentage of A549 cells undergoing apoptosis (early and late) ([10]; compound at IC50): 4.46%

N#Cc1ccc(Oc2ccc(C=NNC(=S)Nc3ccc(S(=O)(=O)N4CCCCC4)cc3)cc2)cc1 [4-[4-(piperidin-1-ylsulfonyl)phenyl]-1-[4-(4-cyanophenoxy)benzylidene]thiosemicarbazide]
IC50 [1]: 1.89 µM

COc1ccc(-c2ccnc(SCC(=O)NN=Cc3ccccc3)n2)cc1 [N′-benzylidene-2-[(4-(4-methoxyphenyl)pyrimidin-2-yl)thio]acetohydrazide]
inhibition of Akt IC50 [12]: 0.50 µg/mL
